# Laboratory results reported in US6576190B1, “Method and apparatus for sterilizing and disinfecting bedclothes using ultraviolet rays and ozone” (Bioneer Corporation, priority 1999, dated 2003).
# Columns and labels:
# [1] = test system: house dust mites (Dermatophagoides farinae, Dermatophagoides pterohyssinus and Tyrophagus putrescentiae mixed); experiment: Test for killing mites; type: in vivo; details: ozone 50 ppm, humidity 72%, 2 hours, no direct UV
# Text: Mites used for test was the house dust mites (samples containing Dermatophagoides farinae, Dermatophagoides pterohyssinus and Tyrophagus putrescentiae mixed up one another were used) which were generally known as primary cause of allergy, which was distributed from the parasitology class of the medical college of Yonsei University in Korea. After the opening the lid of the tube containing twenty mites, the mites were exposed to the environment with the ozone of 50 ppm and the humidity of 72% for 2 hours while the mites were not exposed directly to the ultraviolet rays. After exposition of the mites to the ozone for a given time period, the number of the surviving mites and the number of the dead mites were counted by means of a microscopic examination.
# Escherichia coli DH12S = experiment: Test for sterilizing microorganisms, ozone exposure of agar culture; type: cell-based; details: E. coli, ozone 70 ppm, humidity 50%, no direct UV
# Text: (§1) The microorganisms used for the sterilization test were Escherichia coli DH12S, Staphylococcus aureus KCTC 1621 and Candida albicans KCTC 7965, which are known as pathogenic microorganisms. An UV/O3 lamp ([…]) was used as the generator for generating ultraviolet rays and ozone.
# (§2) Each of the microorganisms was cultivated on appropriate culture medium used commonly: Escherichia coli was cultivated on LB culture medium, Staphylococcus aureus was cultivated on Tryptic Soy culture medium; and Candida albicans was cultivated on YM culture medium. A sample of the microorganism was prepared as follows: After each of the microorganisms was cultivated on agar culture medium, one colony was taken. And then the colony was inoculated into broths of 5 ml, which was cultivated for two hours. The sample prepared as mentioned above was kept in cold storage for the following use. The broths used for cultivation were diluted gradually from an undiluted solution to 10-8, and then they were painted over the agar culture medium. One control was obtained from each of the diluted samples, and seven samples for test were obtained from each of the diluted samples. The control and samples were subject to pre-incubation in the incubator with the temperature of 37° C. for 30 minutes, which was used for sterilization test.
# (§3) The concentration of the ozone in the sterilizing and disinfecting room reached 50 ppm within two or three minutes. And the concentration of the ozone was adjusted so that it was maintained to 70 ppm.
# (§4) The humidity was maintained to 50%. The agar culture medium was placed on several position where it was not exposed to the ultraviolet rays and it had good ventilation. One agar culture medium corresponding to the bedclothes as a test sample was taken every ten minutes after the generator for generating the ultraviolet rays and the ozone was operated. The agar culture medium was cultivated together with the control sample in the incubator with the temperature of 37° C. for 48 hours. […] The number of the real microorganisms and the number of the surviving microorganisms were added together taking the number of the colony and the dilution rate of each sample into account. The test as mentioned above was repeated three times for the purpose of obtaining the statistical effectiveness.
# [2] = test system: Candida albicans KCTC 7965; experiment: as above; type: cell-based; details: C. albicans, ozone 70 ppm, humidity 50%, no direct UV
# Text: as §1, §2, §3, §4
# [3] = test system: Staphylococcus aureus KCTC 1621; experiment: as above; type: cell-based; details: S. aureus, ozone 70 ppm, humidity 50%, no direct UV
# Text: as §1, §2, §3, §4
compound,measurement,setting,value
O=[O+][O-] [ozone],Killing of young mites,[1],all of the young mites were killed
same,State of surviving large mites,[1],"a few surviving large mites were not able to be active normally, which were dead as times went by"
same,Number of dead mites,"[1]; twenty mites, microscopic examination","most of the mites (for example, seventeen mites) were killed"
same,Number of surviving microorganisms (surviving colonies),Escherichia coli DH12S; exposure 10 min.,"11,000"
same,Number of surviving microorganisms (surviving colonies),Escherichia coli DH12S; exposure 20 min.,"2,700"
same,Number of surviving microorganisms (surviving colonies),Escherichia coli DH12S; exposure 30 min.,559
same,Number of surviving microorganisms (surviving colonies),Escherichia coli DH12S; exposure 40 min.,270
same,Number of surviving microorganisms (surviving colonies),Escherichia coli DH12S; exposure 50 min.,101
same,Number of surviving microorganisms (surviving colonies),Escherichia coli DH12S; exposure 60 min.,52
same,Number of surviving microorganisms (surviving colonies),[2]; exposure 10 min.,"12,400"
same,Number of surviving microorganisms (surviving colonies),[2]; exposure 20 min.,"2,840"
same,Number of surviving microorganisms (surviving colonies),[2]; exposure 30 min.,960
same,Number of surviving microorganisms (surviving colonies),[2]; exposure 40 min.,388
same,Number of surviving microorganisms (surviving colonies),[2]; exposure 50 min.,192
same,Number of surviving microorganisms (surviving colonies),[2]; exposure 60 min.,118
same,Number of surviving microorganisms (surviving colonies),[3]; exposure 10 min.,"1,220,000"
same,Number of surviving microorganisms (surviving colonies),[3]; exposure 20 min.,"101,000"
same,Number of surviving microorganisms (surviving colonies),[3]; exposure 30 min.,"9,100"
same,Number of surviving microorganisms (surviving colonies),[3]; exposure 40 min.,"1,260"
same,Number of surviving microorganisms (surviving colonies),[3]; exposure 50 min.,345
same,Number of surviving microorganisms (surviving colonies),[3]; exposure 60 min.,96
